This is an account of results in patent US6716851B2, “Substituted 2-aryl-4-arylaminopyrimidines and analogs as activators or caspases and inducers of apoptosis and the use thereof” (Cytovia, Inc., priority 2000, dated 2004).

Assay [1] has as its system SW620 (colorectal cancer cell line). Kind of assay: Cell proliferation assay (GI50) in SW620 cells. Type of assay: cell-based. The settings on record: Homo sapiens, SW-620; SW620, 48 h. As for the experimental part:
[Worded in the source for another cell line; used here, by the source, with some conditions changed.] (§1) T-47D cells were grown and harvested as in Example 221. An aliquot of 90 μl of cells (2.2×10^4 cells/ml) was added to a well of a 96-well microtiter plate containing 10 μl of a 10% DMSO in RPMI-1640 media solution containing 1 nM to 100 μM of 4-(3-methoxyanilino)-2-(2-pyridinyl)-6-(trifluoromethyl)pyrimidine (0.1 nM to 10 μM final). An aliquot of 90 μl of cells was added to a well of a 96-well microtiter plate containing 10 μl of a 10% DMSO in RPMI-1640 media solution without compound as the control sample for maximal cell proliferation (AMax). The samples were mixed by agitation and then incubated at 37° C. for 48 h in a 5% CO2-95% humidity incubator. After incubation, the samples were removed from the incubator and 20 μl of CellTiter 96 AQueous One Solution Cell Proliferation^TM reagent (Promega) was added. The samples were mixed by agitation and incubated at 37° C. for 2-4 h in a 5% CO2-95% humidity incubator. Using an absorbance plate reader (Model 1420 Wallac Instruments), an initial reading (T=0) was made approximately 1-2 min after addition of the solution, employing absorbance at 490 nm. This determines the possible background absorbance of the test compounds. No absorbance for 4-(3-methoxyanilino)-2-(2-pyridinyl)-6-(trifluoromethyl)pyrimidine was found at 490 nm. After the 2-4 h incubation, the samples were read for absorbance as above (ATest). […]

The subject of assay [2] is MCF-7 cells. Put plainly: Cell proliferation assay (GI50) in MCF-7 cells. As to conditions: Homo sapiens, MCF7; MCF-7, 48 h. Type of assay: cell-based. As to the method:
[Worded in the source for another cell line; this cell line is reported under the same test.] as §1

The test system of assay [3] is T-47D cells. Kind of assay: Cell proliferation assay (GI50) in T-47D cells. Type of assay: cell-based. The settings on record: Homo sapiens, T47D, 48 h. As to the method:
as §1

Assay [4] concerns SK-Br-3 cells. Put plainly: Cell proliferation assay (GI50) in SK-Br-3 cells. It counts as cell-based. The settings on record: Homo sapiens, SK-BR-3, 48 h. As for the experimental part: [Worded in the source for another cell line; this cell line is reported under the same test.] as §1
Assay [5] has as its system ZR-75-1 cells. Kind of assay: Cell proliferation assay (GI50) in ZR-75-1 cells. It counts as cell-based. The settings on record: Homo sapiens; ZR 75-1, 48 h. As for the experimental part: [Worded in the source for another cell line; this cell line is reported under the same test.] as §1
Assay [6] concerns T-47D cells. Put plainly: Caspase cascade activation (N-(Ac-DEVD)-N'-ethoxycarbonyl-R110 fluorogenic substrate) in T-47D cells. As to conditions: 48 h incubation. It counts as cell-based, Human. The procedure, abridged: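 Cells (0.65×10^6/ml) exposed 48 h at 37 °C to compound (0.016-10 μM final), then lysed with 14 μM DEVD-R110 substrate buffer (PIPES pH 7.2, DTT, lysolecithin) for 3 h at room temperature. Net fluorescence (485/530 nm) relative to control; EC50 by sigmoidal dose-response.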

Like-named read-outs stand apart in the source and are kept apart here.

Broadly, the GI50 is the concentration at which growth is held to half of that of the control. As a reminder, the EC50 is the concentration needed to bring the measured effect to its halfway point. For `COc1cccc(Nc2cc(C(F)(F)F)nc(-c3ccccn3)n2)c1` [Compound A, 4-(3-methoxyanilino)-2-(2-pyridinyl)-6-(trifluoromethyl)pyrimidine], the GI50 is more than 10000 nM in assay [1]; 100 nM in assay [2]; 30 nM in assay [3] (T-47D, Table II, read-out: GI50); 30 nM in assay [3] (Table III, read-out: GI50(nM) T47D); 60 nM in assay [4]; 100 nM in assay [5]. Further, in assay [6] (Homo sapiens, T47D, caspase activation potency, read-out: T47 EC50), the half-maximal effective concentration (EC50) was 433 nM. In addition, the “T47 Ratio 48 hr” value in assay [6] (caspase activity: ratio of net RFU of test compound to control) came out at 29.3.
